# Assay results from patent US5006342A, “Resilient transdermal drug delivery device” (Cygnus Corporation, priority 1989, dated 1991).
# Experiments:
# [1] = wearing study, E2 plasma levels in postmenopausal female subjects; type: in vivo, postmenopausal female subjects (human); conditions: postmenopausal females
# [2] = in vitro release of E2 (reciprocating dissolution apparatus, USP Test Dissolution Method V, 32° C.); conditions: Example 1, 7-layer system, over 7 days
# Protocol: The in vitro release of E2 from the 7-layer system was determined, using a reciprocating dissolution apparatus (USP Test Dissolution Method V) at 32° C., to be square-root-time-dependent over 7 days with a total cumulative release of 190 μg/cm^2 in 7 days (the flux was 14.66 μg/cm^2 /hr^1/2). The laminated composite was translucent and resilient, allowing the system to stretch with the stretching of skin when worn.
# [3] = E2 in vitro steady-state skin flux across human cadaver skin (diffusion cells, 32° C.); type: in vitro ADME
smiles,measurement,setting,value
"C[C@]12CC[C@@H]3c4ccc(O)cc4CC[C@H]3[C@@H]1CC[C@@H]2O [Example E2, estradiol]",constant plasma levels,"[1]; Example 3, 30 cm^2 laminate, four day wearing, 5760 min",~32 pg/mL
same,constant plasma concentration of E2,"[1]; Example 5, 30 cm^2 laminate, 7 day wearing",~45 pg/mL
same,concentration at 96 h,"[1]; human, plasma, topical or ocular, Example 3, 20 cm^2 laminate, four day wearing, read-out: constant plasma levels",~0.025 ng/mL
same,concentration at 168 h,"[1]; human, plasma, topical or ocular, Example 5, 20 cm^2 laminate, 7 day wearing, read-out: constant plasma concentration of E2",~0.03 ng/mL
same,in vitro release flux of E2 (square-root-time),[2],14.66 μg/cm^2 /hr^1/2
same,time dependence of in vitro release of E2,[2],square-root-time-dependent
same,In vitro skin flux,"[3]; Example 2, 7-layer, 14% PGML in L1",-0.15 μg/cm^2 /hr
same,In vitro skin flux,"[3]; Example 3, 7-layer, Medifilm 810, E2 2.0% in L1 and 5.5% in L2",approximately 0.14 μg/cm^2 /hr
same,E2 skin flux,"[3]; Example 4, 5-layer laminate (prepared similarly to Example 1)",-0.12 μg/cm^2 /hr
same,E2 skin flux,"[3]; Example 5, 5-layer laminate (prepared similarly to Example 2)",~ 0.15 μg/cm^2 /hr
same,flux from the 5-layer device,"[3]; Examples 6 and 7, 5-layer device, Medifilm 810",-0.14 μg/cm^2 /hr
same,flux from the 5-layer device,"[3]; Examples 8 and 9, 5-layer device, Medifilm 910",-0.11 μg/cm^2 /hr
